Consider ten compounds from PubChem BioAssay AID623941 (Vanderbilt Specialized Chemistry Center, 2012).

Activity calls are given as the source filed them.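 The calls were made as follows: active = response rises or falls steadily with concentration, forming a dose-response curve as judged by the submitting lab; inactive = the rest.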

The target in the first assay is Muscarinic acetylcholine receptor M2 (Rattus norvegicus) (UniProt P10980). The assay is described as follows: off-target potentiation of rat M2 ACh response – CHO cells, Gqi5 chimera, calcium, ACh EC20, selectivity assay for M4 PAM optimization project, SAR follow-up (AID 623941). Conditions: CHO rM2/Gqi5 calcium fluorescence.
Chain of Muscarinic acetylcholine receptor M2 (Rattus norvegicus) (P10980 whole entry, looked up): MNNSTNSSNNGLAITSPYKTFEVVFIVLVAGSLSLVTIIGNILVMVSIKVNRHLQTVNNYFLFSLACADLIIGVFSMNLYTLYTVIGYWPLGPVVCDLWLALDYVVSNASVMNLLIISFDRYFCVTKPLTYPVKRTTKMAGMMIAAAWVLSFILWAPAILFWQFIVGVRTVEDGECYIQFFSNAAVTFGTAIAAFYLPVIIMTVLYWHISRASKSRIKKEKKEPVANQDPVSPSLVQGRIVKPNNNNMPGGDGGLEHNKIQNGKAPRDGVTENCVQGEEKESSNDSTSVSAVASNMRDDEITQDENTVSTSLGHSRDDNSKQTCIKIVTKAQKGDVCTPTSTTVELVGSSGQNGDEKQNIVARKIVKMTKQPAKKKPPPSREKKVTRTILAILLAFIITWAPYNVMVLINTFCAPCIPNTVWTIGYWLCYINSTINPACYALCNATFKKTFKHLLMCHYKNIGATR
`Cc1nc2sc(C(=O)NCc3ccncc3)c(N)c2c(C)c1Cl`: the result was inactive. The term EC50 denotes the concentration needed to bring the measured effect to its halfway point. For `Cc1nc2sc(C(=O)NC3CC3)c(N)c2c(C)c1Cl`, the EC50 was 640 nM. As to `Cc1nc2sc(C(=O)NCc3cccnc3)c(N)c2c(C)c1Cl`, the result was inactive. In the case of `Cc1nc2sc(C(=O)NCc3ccccc3)c(N)c2c(C)c1Cl`, the result was inactive. In the case of `Cc1nc2sc(C(=O)NCc3ccc4c(c3)OCO4)c(N)c2c(C)c1Cl`, the outcome was inactive.

Staying with this assay, now noted: CHO rM2/Gqi5 calcium fluorescence, at 30 µM (top of the series).
Take `Cc1nc2sc(C(=O)NCc3ccncn3)c(N)c2c(C)c1Cl`: the “% ACh max response” value is “inactive”.

Consider `Cc1nc2sc(C(=O)NCc3nccs3)c(N)c2c(C)c1Cl`, for which the “% ACh max response” value was “inactive”. On the same count and under the same terms, the value for `COc1ccc(C)c2sc(NC(=O)c3ccncc3)nc12` was “inactive”; that for `Cc1nc2sc(C(=O)NCc3cccc(F)c3F)c(N)c2c(C)c1Cl` was “inactive”. On the same count and under the same terms, to `Cc1nc2sc(C(=O)NCCc3ccncc3)c(N)c2c(C)c1Cl` belongs “inactive”.
